From patent publication US11013812B2, “Ice-based lipid nanoparticle formulation for delivery of mRNA” (Translate Bio, Inc., priority 2016, dated 2021)

Experiment: Percent mRNA encapsulation of lipid nanoparticle formulations (fluorescence-based detection of mRNA)
Assay type: physicochemical
Conditions: LNP of cationic lipid:DOPE:DMG-PEG 2K (molar ratio 60:35:5); 5 mg mRNA LNP preparations
From the text: In some embodiments, one particular application of the novel lipid composition comprising a sterol-based cationic lipid, a helper lipid, and a PEG or PEG-modified lipid is pulmonary delivery of mRNA, such as CFTR mRNA.
In this process, the lipids dissolved in ethanol and the mRNA dissolved in citrate buffer were mixed using a pump system. […] The resultant formulation mixture was in citrate buffer containing 20% ethanol. The formulation was subjected to a buffer exchange and the resultant formulation was adjusted to the desired mRNA concentration and stored frozen until further use. Final concentration: 0.5 mg/mL CFTR mRNA (encapsulated). % mRNA Encapsulation: 90%. Size: 60 nm. PDI: 0.14.

% mRNA encapsulation [%]	SMILES
51	CCCCCCCC/C=C\CCCCCCCCOCC(CN(C)C)OCCCCCCCC/C=C\CCCCCCCC (centres unmarked) [DODMA, 1,2-Dioleyloxy-3-dimethylaminopropane]
59	CCCCCCCCCCC(O)CN(CCCC(C)C1OC(=O)C(C(C)CCCN(CC(O)CCCCCCCCCC)CC(O)CCCCCCCCCC)OC1=O)CC(O)CCCCCCCCC (centres unmarked) [Target 24, 3-(5-(bis(2-hydroxydodecyl)amino)pentan-2-yl)-6-(5-((2-hydroxydodecyl)(2-hydroxyundecyl)amino)pentan-2-yl)-1,4-dioxane-2,5-dione]
49	CCCCCCCC/C=C\CCCCCCCC(=O)OCC(CN(C)C)OC(=O)CCCCCCC/C=C\CCCCCCCC (centres unmarked) [DODAP, 1,2-dioleoyl-3-dimethylammonium-propane]
39	CCCCCCCCCCC(O)CN(CCN1CCN(CCN(CC(O)CCCCCCCCCC)CC(O)CCCCCCCCCC)CC1)CCN(CC(O)CCCCCCCCCC)CC(O)CCCCCCCCCC (centres unmarked) [C12-200]

SMILES	% mRNA encapsulation [%]
CC(C)CCCC(C)C1CCC2C3CC=C4CC(OC(=O)CCc5cnc[nH]5)CCC4(C)C3CCC12C [ICE, (3S, 10R, 13R, 17R)-10, 13-dimethyl-17-((R)-6-methylheptan-2-yl)-2,3,4,7,8,9, 10, 11, 12, 13, 14, 15, 16, 17-tetradecahydro-1H-cyclopenta[a]phenanthren-3-yl 3-(1H-imidazol-4-yl)propanoate]	90
